Our source for the EC50, Efficacy and Activity values is ChEMBL document CHEMBL4020785, “Switching subtype-selectivity: Fragment replacement strategy affords novel class of peroxisome proliferator-activated receptor α/δ (PPARα/δ) dual agonists” (Bioorg Med Chem Lett, 2017).

Structures are written as SMILES. Calls of active or inactive are those of the source. The rule behind the calls is not given here.

Assay [1] has as its target T1, Peroxisome proliferator-activated receptor alpha (Homo sapiens, UniProt Q07869).
T1 sequence (Q07869 whole entry): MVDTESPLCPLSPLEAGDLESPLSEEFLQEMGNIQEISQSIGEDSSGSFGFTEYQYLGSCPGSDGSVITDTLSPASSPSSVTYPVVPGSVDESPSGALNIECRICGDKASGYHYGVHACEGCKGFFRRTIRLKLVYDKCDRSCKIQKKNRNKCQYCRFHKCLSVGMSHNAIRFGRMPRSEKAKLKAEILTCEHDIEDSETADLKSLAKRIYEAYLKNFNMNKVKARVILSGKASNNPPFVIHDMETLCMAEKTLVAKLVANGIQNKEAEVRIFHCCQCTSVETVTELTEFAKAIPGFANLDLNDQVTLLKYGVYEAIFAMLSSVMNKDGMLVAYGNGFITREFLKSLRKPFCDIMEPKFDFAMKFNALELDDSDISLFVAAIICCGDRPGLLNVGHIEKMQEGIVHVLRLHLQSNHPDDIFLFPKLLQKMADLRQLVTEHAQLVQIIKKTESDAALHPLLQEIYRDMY
As to the kind of experiment: Agonist activity at GAL4N fused human PPARalpha LBD expressed in HEK293 cells co-expressing TK-MH100x4-Luc after 24 hrs by luciferase reporter gene assay. It counts as cell-based.

In assay [2] the target is T2, Peroxisome proliferator-activated receptor delta (Homo sapiens, UniProt Q03181).
T2 sequence (Q03181 whole entry): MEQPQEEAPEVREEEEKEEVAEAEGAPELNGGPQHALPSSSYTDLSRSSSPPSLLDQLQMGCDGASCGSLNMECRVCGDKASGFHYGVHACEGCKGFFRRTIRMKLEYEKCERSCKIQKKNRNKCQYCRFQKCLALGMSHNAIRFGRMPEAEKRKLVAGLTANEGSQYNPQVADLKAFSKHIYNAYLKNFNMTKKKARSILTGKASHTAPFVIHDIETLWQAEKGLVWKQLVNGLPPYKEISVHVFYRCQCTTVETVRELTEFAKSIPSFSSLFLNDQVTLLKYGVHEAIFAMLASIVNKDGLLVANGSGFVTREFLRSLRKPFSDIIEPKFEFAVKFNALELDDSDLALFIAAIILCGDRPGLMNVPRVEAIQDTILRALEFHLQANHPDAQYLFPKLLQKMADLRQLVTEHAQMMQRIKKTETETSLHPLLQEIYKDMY
Briefly: Agonist activity at GAL4N fused human PPARdelta LBD expressed in HEK293 cells co-expressing TK-MH100x4-Luc after 24 hrs by luciferase reporter gene assay. It counts as cell-based. Background: In a reporter assay the amount or activity of a reporter protein is the signal.

Assay [3] addresses T3, Peroxisome proliferator-activated receptor gamma (Homo sapiens, UniProt P37231).
T3 sequence (P37231 whole entry): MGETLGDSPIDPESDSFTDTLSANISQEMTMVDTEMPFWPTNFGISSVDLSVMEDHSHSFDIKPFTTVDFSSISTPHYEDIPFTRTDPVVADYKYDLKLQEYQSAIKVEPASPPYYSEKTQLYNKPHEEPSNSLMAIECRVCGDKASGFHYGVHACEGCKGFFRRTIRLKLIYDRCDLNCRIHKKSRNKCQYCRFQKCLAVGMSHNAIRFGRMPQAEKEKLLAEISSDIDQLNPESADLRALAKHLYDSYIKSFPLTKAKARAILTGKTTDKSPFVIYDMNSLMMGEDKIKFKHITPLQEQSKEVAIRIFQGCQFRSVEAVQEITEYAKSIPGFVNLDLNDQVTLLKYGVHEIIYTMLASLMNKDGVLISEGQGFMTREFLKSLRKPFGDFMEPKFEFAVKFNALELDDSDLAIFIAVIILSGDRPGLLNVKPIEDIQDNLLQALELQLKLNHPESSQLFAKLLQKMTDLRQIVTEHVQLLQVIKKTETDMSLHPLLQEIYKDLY
Briefly: Agonist activity at GAL4N fused human PPARgamma LBD expressed in HEK293 cells co-expressing TK-MH100x4-Luc after 24 hrs by luciferase reporter gene assay. It counts as cell-based.

Assay [4] deals with T4, Peroxisome proliferator-activated receptor delta (Homo sapiens) (UniProt Q03181).
T4 sequence (whole entry): T2 sequence (Q03181 whole entry)
Briefly: Agonist activity at GAL4N fused human PPARdelta LBD expressed in HEK293 cells co-expressing TK-MH100x4-Luc after 24 hrs by luciferase reporter gene assay relative to GW501516. It counts as cell-based.

Assay [5] has as its target T5, Peroxisome proliferator-activated receptor alpha (Homo sapiens) (UniProt Q07869).
T5 sequence (whole entry): T1 sequence (Q07869 whole entry)
Briefly: Agonist activity at GAL4N fused human PPARalpha LBD expressed in HEK293 cells co-expressing TK-MH100x4-Luc after 24 hrs by luciferase reporter gene assay relative to GW7647. It counts as cell-based.

For assay [6], the target named is T6, Peroxisome proliferator-activated receptor gamma (Homo sapiens) (UniProt P37231).
T6 sequence (whole entry): T3 sequence (P37231 whole entry)
As to the kind of experiment: Agonist activity at GAL4N fused human PPARgamma LBD expressed in HEK293 cells co-expressing TK-MH100x4-Luc after 24 hrs by luciferase reporter gene assay relative to rosiglitazone. It counts as cell-based.

For assay [7], the target named is T6, Peroxisome proliferator-activated receptor gamma (Homo sapiens). As to the kind of experiment: Agonist activity at GAL4N fused human PPARgamma LBD expressed in HEK293 cells co-expressing TK-MH100x4-Luc at less than 30 uM after 24 hrs by luciferase reporter gene assay. It counts as cell-based.
Assay [8] deals with T4, Peroxisome proliferator-activated receptor delta (Homo sapiens). As to the kind of experiment: Agonist activity at GAL4N fused human PPARdelta LBD expressed in HEK293 cells co-expressing TK-MH100x4-Luc at less than 30 uM after 24 hrs by luciferase reporter gene assay. It counts as cell-based.
Assay [9] addresses T5, Peroxisome proliferator-activated receptor alpha (Homo sapiens). Briefly: Agonist activity at GAL4N fused human PPARalpha LBD expressed in HEK293 cells co-expressing TK-MH100x4-Luc at less than 30 uM after 24 hrs by luciferase reporter gene assay. It counts as cell-based.
In assay [10] the target is T4, Peroxisome proliferator-activated receptor delta (Homo sapiens). As to the kind of experiment: Agonist activity at GAL4N fused human PPARdelta LBD expressed in HEK293 cells co-expressing TK-MH100x4-Luc at 50 uM after 24 hrs by luciferase reporter gene assay relative to control. It counts as cell-based.
Assay [11] deals with T7, Peroxisome proliferator-activated receptor alpha (Mus musculus, UniProt P23204).
T7 sequence (P23204 whole entry): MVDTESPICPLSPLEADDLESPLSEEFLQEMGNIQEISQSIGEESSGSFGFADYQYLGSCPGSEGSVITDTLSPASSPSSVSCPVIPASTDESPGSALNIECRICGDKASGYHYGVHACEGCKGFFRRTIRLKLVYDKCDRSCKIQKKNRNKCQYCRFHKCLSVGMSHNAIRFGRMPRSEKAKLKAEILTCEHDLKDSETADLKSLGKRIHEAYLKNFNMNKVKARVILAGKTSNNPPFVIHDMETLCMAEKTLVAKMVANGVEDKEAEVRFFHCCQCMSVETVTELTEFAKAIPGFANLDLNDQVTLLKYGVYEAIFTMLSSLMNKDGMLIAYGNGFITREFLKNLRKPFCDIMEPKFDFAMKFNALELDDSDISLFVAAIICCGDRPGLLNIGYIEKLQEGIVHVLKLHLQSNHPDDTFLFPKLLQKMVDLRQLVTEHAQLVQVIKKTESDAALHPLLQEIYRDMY
Briefly: Agonist activity at 3' GAL4 DNA binding domain fused mouse PPARalpha LBD expressed in U-2 OS cells after 40 hrs by luciferase reporter gene assay. It counts as cell-based.

Assay [12] concerns the target T1, Peroxisome proliferator-activated receptor alpha.

In the case of `CCOC(Cc1ccc(Oc2ccc(OCc3ccccc3)cc2)cc1)C(=O)O` (stereo unspecified), the EC50 in assay [1] came out at 5400 nM; in [2], 31000 nM; in [3], 18000 nM. The Efficacy in [4] is 16 to 45%; in assay [5], 87 to 129%; in [6], 39 to 51%.
Take `CC(=O)NC(C)c1nc(-c2ccc(OCCCOc3ccc(Oc4ccccc4)cc3)cc2)no1` (stereo unspecified): the result in assay [7] was inactive. For the same compound, the EC50 worked out at 240 nM in assay [1] and 320 nM in [2]. For the same compound, the figures for the Efficacy in assay [4] and in [5] were 2 to 11% and 17 to 27%, respectively.
On to `CC(=O)NC(C)c1nc(-c2ccc(OCCc3ccc(OS(C)(=O)=O)cc3)cc2)no1` (stereo unspecified), for which, in assay [7], the outcome was inactive. Further, the EC50 in [1] is 1200 nM; in assay [2], 1600 nM. Besides, the Efficacy in [4] fell in the range of 7 to 18%; in assay [5] it was 13 to 37%.
For the compound `CC(=O)NC(C)c1nc(-c2ccc(OCCN3c4ccccc4Oc4ccccc43)cc2)no1` (stereo unspecified), the result in assay [7] was inactive. The figures for the EC50 in assay [1] and in assay [2] were 470 nM and 450 nM, respectively. The Efficacy in [4] was in the range of 2 to 9%; in assay [5] it was 7 to 17%.
Take `CC(=O)N[C@H](C)c1nc(-c2ccc(OCCc3ccc(OS(C)(=O)=O)cc3)cc2)no1`: the result in [7], in [8] and in assay [9] was inactive.
Turning to `CC(=O)NC(C)c1nc(-c2ccc(OCC=C(c3ccc(Br)cc3)c3ccc(Br)cc3)cc2)no1` (stereo unspecified), the result in assay [7] was inactive. The concentration for a half-maximal effect (EC50) in assay [1] is 880 nM; in assay [2], 970 nM. For the same compound, the Efficacy lay within 5 to 14% in assay [4] and 3 to 15% in assay [5].
On to `CCO[C@@H](Cc1ccc(OCCc2ccc(OS(C)(=O)=O)cc2)cc1)C(=O)O` [TESAGLITAZAR], for which the Efficacy in assay [10] is 38%; in assay [5], 122 to 186%; in [6] it was 119 to 130%. In addition, the results for the concentration for a half-maximal effect (EC50) in assay [1], in [3] and in assay [11] were 3800 nM, 360 nM and 1700 nM, respectively.
For `CCO[C@@H](Cc1ccc(OCCN2c3ccccc3Oc3ccccc32)cc1)C(=O)O` [RAGAGLITAZAR], in assay [12], a half-maximal effect (EC50) was put at 2800 nM.
Consider `CC(=O)N[C@@H](C)c1nc(-c2ccc(OCCc3ccc(OS(C)(=O)=O)cc3)cc2)no1`, for which the outcome in assay [7] was inactive. In addition, the EC50 in assay [1] came out at 450 nM; in assay [2], 990 nM. The Efficacy in assay [4] lay within 4 to 19%; in assay [5], 13 to 33%.

Broadly, the EC50 is the concentration at which the effect is half-maximal. Low values mean a more potent agent, high ones a less potent agent.
